Data published in ChEMBL document CHEMBL4477270, “Design, synthesis, and protein methyltransferase activity of a unique set of constrained amine containing compounds” (Bioorg Med Chem Lett, 2016).
Active and inactive are the calls of the source. The calls are words filed in the database; no cut-off is given here.

Experiments:
[1] = biological target: Protein N-lysine methyltransferase METTL21D (Homo sapiens) (UniProt Q9H867); assay: Inhibition of METTL21D (unknown origin) using biotin-labeled histone substrate assessed as residual activity at 50 uM in presence of [3H-Me]SAM by scintillation proximity assay relative to control
Chain of Protein N-lysine methyltransferase METTL21D (Homo sapiens) (Q9H867 whole entry, the tested form may be a part): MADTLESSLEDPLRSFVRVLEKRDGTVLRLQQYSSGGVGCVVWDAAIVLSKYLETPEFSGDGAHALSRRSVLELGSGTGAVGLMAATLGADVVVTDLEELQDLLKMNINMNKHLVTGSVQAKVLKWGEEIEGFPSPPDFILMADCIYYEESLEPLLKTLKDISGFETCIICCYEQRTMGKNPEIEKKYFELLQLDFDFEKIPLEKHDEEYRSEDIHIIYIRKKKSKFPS

[2] = biological target: Histone-lysine N-methyltransferase SETD2 (Homo sapiens) (UniProt Q9BYW2); assay: Inhibition of N-terminal His6-tagged human SETD2 (1347 to 1711 residues) expressed in Escherichia coli Rosseta-2(DE3) cells assessed as residual activity at 50 uM using biotinylated-histone H3 (20 to 50 residues) as substrate in presence of [3H-Me]SAM by scintillation proximity assay relative to control
Chain of Histone-lysine N-methyltransferase SETD2 (Homo sapiens) (Q9BYW2 whole entry, the tested form may be a part): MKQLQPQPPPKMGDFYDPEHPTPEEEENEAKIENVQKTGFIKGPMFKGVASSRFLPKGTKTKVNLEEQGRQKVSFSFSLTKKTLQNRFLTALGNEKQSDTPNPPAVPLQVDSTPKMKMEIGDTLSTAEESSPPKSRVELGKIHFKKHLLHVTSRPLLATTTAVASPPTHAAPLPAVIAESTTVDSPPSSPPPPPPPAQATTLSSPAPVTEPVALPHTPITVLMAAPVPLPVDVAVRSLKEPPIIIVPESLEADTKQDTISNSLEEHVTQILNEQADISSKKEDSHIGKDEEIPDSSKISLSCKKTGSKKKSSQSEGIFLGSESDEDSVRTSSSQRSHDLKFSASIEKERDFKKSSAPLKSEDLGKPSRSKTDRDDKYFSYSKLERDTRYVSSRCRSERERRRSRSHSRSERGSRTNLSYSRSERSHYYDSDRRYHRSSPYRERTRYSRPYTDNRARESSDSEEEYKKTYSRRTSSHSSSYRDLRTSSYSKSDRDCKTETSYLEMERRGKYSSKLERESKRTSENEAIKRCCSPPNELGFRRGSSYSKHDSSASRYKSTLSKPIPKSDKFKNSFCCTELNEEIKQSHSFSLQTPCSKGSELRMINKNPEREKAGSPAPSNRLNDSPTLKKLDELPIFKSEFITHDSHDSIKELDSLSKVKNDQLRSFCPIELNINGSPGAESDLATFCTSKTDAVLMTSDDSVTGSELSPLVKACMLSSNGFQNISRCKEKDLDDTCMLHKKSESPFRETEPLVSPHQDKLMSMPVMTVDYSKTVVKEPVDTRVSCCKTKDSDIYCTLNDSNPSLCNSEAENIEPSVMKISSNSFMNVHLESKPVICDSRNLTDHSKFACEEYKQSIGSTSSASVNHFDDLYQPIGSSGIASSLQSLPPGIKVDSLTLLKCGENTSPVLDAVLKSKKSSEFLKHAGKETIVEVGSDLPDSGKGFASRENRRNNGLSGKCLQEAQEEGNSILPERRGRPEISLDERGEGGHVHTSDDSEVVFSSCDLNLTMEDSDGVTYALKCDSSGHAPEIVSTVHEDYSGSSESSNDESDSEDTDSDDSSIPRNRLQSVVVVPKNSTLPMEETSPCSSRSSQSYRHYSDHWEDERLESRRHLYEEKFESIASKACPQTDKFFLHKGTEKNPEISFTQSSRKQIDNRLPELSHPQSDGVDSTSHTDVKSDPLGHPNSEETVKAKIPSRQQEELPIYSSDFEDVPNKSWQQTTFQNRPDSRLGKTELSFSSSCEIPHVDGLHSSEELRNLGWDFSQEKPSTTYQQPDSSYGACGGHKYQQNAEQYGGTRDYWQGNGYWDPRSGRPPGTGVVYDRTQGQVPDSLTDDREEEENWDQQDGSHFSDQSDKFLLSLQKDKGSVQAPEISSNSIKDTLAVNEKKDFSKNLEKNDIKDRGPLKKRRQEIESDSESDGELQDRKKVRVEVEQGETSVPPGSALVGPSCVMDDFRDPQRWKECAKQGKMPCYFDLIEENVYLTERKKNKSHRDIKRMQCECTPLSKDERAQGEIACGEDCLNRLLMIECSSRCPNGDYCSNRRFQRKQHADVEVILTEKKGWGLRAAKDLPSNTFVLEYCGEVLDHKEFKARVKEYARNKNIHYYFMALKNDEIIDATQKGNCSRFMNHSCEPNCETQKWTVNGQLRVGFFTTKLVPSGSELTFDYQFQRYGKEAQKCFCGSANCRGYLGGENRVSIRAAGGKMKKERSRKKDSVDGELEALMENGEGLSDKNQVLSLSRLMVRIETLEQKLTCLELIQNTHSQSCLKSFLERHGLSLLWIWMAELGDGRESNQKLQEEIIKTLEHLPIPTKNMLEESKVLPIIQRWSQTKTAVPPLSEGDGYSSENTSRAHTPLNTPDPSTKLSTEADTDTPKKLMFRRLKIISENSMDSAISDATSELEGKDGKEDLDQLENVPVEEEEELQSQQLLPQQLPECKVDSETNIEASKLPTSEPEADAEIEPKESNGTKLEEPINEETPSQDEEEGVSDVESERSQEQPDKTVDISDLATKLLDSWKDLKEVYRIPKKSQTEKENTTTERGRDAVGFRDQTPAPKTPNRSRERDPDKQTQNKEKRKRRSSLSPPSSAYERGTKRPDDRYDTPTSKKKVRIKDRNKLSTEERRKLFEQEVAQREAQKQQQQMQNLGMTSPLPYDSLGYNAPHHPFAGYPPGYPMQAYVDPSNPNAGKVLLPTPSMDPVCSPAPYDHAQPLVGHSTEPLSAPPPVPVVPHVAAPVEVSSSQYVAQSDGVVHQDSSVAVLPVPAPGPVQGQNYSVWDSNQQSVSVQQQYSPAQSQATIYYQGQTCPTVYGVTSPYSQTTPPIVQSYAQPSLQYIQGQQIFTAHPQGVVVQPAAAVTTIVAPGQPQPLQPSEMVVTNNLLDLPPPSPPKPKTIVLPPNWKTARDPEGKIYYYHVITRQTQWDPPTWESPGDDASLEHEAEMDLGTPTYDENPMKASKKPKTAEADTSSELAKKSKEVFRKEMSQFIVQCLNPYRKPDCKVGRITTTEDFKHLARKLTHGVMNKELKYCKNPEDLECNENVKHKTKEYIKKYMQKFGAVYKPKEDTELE

[3] = biological target: T1, N-lysine methyltransferase KMT5A (Homo sapiens) (UniProt Q9NQR1); assay: Inhibition of SETD8 (unknown origin) using biotin-labeled histone H4 (1 to 24 residues) as substrate assessed as residual activity at 50 uM in presence of [3H-Me]SAM by scintillation proximity assay relative to control
T1 sequence (whole entry): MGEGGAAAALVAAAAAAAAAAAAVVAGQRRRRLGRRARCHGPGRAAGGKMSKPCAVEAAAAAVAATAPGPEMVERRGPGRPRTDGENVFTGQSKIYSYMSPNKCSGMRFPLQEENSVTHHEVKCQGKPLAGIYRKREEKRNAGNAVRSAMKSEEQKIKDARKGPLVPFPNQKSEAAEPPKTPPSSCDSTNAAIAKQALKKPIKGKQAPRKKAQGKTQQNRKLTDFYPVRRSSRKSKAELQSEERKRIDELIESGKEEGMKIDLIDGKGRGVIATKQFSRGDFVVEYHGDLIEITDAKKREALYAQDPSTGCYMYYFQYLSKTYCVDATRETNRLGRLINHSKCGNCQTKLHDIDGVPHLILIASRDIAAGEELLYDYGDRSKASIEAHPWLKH

[4] = biological target: Histone-lysine N-methyltransferase 2C (Homo sapiens) (UniProt Q8NEZ4); assay: Inhibition of MLL3 (unknown origin) using biotin-labeled histone substrate assessed as residual activity at 50 uM in presence of [3H-Me]SAM by scintillation proximity assay relative to control
[5] = biological target: Protein arginine N-methyltransferase 6 (Homo sapiens) (UniProt Q96LA8); assay: Inhibition of PRMT6 (unknown origin) using biotin-labeled histone substrate assessed as residual activity at 50 uM in presence of [3H-Me]SAM by scintillation proximity assay relative to control
Chain of Protein arginine N-methyltransferase 6 (Homo sapiens) (Q96LA8 whole entry, looked up): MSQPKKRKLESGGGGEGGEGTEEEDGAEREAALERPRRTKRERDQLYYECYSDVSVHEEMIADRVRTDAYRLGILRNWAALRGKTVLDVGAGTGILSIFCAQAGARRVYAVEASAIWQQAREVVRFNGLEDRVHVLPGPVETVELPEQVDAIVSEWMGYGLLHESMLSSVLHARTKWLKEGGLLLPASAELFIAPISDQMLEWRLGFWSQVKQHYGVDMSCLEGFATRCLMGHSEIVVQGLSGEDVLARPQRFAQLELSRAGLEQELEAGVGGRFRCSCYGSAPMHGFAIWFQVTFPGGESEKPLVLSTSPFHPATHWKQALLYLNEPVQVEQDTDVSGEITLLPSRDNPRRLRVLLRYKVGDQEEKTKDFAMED

[6] = biological target: T2, Histone-lysine N-methyltransferase NSD2 (Homo sapiens) (UniProt O96028); assay: Inhibition of NSD2 (unknown origin) using biotin-labeled histone substrate assessed as residual activity at 50 uM in presence of [3H-Me]SAM by scintillation proximity assay relative to control
T2 sequence (whole entry): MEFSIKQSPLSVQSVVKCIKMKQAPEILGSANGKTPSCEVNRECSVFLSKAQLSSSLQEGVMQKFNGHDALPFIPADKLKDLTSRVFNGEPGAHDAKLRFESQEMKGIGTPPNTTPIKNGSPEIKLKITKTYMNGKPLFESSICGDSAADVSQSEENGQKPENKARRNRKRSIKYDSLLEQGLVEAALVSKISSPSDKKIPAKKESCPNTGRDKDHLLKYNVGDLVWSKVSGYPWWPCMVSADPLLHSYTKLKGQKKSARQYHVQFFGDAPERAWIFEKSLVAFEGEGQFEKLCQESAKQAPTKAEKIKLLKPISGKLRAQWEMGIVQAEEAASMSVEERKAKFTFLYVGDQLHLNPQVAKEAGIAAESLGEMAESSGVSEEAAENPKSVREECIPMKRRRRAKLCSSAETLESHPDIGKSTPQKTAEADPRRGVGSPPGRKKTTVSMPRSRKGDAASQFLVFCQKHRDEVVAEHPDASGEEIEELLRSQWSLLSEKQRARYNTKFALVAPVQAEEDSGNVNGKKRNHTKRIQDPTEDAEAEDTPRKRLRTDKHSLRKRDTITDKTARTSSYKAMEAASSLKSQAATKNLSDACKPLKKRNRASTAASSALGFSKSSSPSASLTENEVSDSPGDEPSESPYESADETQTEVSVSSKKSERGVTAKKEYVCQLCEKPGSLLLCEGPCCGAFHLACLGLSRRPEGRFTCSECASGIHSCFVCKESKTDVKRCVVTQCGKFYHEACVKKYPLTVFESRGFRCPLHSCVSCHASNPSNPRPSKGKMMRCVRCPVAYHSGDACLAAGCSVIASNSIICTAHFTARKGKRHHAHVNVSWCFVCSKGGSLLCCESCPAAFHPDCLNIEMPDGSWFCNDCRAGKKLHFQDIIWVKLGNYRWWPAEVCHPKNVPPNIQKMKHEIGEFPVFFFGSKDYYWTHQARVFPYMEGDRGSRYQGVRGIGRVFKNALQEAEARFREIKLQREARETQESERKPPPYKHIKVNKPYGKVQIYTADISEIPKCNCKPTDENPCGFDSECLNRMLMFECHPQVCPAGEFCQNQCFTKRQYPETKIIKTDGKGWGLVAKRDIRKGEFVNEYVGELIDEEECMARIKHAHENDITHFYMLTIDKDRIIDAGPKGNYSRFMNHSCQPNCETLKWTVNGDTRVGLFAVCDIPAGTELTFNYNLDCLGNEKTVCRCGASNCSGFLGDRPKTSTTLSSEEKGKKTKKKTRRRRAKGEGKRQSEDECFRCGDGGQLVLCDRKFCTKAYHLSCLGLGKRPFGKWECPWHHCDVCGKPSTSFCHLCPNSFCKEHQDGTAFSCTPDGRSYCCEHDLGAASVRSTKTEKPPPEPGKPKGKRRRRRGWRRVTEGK

[7] = biological target: Histone-lysine N-methyltransferase, H3 lysine-79 specific (Homo sapiens) (UniProt Q8TEK3); assay: Inhibition of DOT1L (unknown origin) using biotin-labeled histone substrate assessed as residual activity at 50 uM in presence of [3H-Me]SAM by scintillation proximity assay relative to control
Chain of Histone-lysine N-methyltransferase, H3 lysine-79 specific (Homo sapiens) (Q8TEK3 whole entry, looked up, the tested form may be a part): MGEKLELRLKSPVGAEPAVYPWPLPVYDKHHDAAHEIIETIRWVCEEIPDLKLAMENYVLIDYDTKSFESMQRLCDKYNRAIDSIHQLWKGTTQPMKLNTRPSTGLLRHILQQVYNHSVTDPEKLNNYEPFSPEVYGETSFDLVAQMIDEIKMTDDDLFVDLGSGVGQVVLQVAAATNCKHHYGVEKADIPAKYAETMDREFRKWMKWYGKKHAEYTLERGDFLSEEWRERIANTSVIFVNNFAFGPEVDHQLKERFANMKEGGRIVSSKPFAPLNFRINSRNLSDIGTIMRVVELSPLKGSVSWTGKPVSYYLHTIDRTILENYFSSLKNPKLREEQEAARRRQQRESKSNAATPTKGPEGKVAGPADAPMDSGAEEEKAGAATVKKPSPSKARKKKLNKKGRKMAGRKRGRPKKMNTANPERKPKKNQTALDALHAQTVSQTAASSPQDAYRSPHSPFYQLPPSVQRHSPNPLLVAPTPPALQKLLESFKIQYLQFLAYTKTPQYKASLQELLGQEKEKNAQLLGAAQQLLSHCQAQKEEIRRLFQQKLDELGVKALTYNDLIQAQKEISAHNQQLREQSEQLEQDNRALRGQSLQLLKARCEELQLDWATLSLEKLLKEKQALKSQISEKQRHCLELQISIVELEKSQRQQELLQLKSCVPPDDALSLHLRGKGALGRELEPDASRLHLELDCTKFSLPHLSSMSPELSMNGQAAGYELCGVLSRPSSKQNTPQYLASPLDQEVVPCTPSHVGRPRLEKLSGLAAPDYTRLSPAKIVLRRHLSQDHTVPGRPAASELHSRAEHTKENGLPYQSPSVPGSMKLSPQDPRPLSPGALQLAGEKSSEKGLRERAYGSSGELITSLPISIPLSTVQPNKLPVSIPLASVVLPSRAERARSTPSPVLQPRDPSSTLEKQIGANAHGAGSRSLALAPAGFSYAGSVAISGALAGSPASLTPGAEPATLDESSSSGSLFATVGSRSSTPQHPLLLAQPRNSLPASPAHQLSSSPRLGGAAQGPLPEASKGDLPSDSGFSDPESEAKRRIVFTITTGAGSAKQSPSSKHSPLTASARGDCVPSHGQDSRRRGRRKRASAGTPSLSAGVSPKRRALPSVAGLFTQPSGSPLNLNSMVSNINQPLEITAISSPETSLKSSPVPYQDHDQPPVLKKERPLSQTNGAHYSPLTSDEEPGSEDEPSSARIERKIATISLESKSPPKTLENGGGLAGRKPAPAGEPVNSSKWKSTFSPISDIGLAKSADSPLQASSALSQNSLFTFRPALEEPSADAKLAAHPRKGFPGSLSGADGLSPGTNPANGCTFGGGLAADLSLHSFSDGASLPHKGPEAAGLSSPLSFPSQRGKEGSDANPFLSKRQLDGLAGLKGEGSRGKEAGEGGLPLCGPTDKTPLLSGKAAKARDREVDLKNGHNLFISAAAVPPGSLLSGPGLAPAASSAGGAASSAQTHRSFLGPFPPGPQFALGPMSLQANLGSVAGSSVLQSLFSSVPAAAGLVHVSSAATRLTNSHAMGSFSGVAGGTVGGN

[8] = biological target: T3, N-lysine methyltransferase KMT5A (Homo sapiens, UniProt Q9NQR1); assay: Inhibition of SETD8 (unknown origin) using biotin-labeled histone H4 (1 to 24 residues) as substrate in presence of [3H-Me]SAM by scintillation proximity assay
T3 sequence (Q9NQR1 whole entry): T1 sequence (whole entry)

[9] = biological target: T1, N-lysine methyltransferase KMT5A (Homo sapiens); assay: Binding affinity to SETD8 (unknown origin) in absence of S-adenosyl-L-homocysteine by isothermal titration calorimetry
[10] = biological target: T1, N-lysine methyltransferase KMT5A (Homo sapiens); assay: Binding affinity to SETD8 (unknown origin) in presence of S-adenosyl-L-homocysteine by isothermal titration calorimetry

Activity [1] [%]	Activity [2] [%]	Activity [3] [%]	Activity [4] [%]	Activity [5] [%]	Activity [6] [%]	Activity [7] [%]	IC50 [8] [µM]	Activity [9]	Activity [10]	SMILES
104	109	106	97	98	105	107				CN1CCCC2(CCCN2C(=O)c2cccc(Br)c2)C1 (stereo not drawn)
98	88	106	94	105	105	97				CN1CCC2(CCCN(C(=O)c3cccc(Br)c3)C2)C1 (stereo not drawn)
99	99	107	96	101	101	96				CN1CCCC2(CCCN(C(=O)c3cccc(Br)c3)C2)C1 (stereo not drawn)
111	98	91	97	104	99	97				CN1CCC2(CCCN2C(=O)c2cccc(Br)c2)CC1
91	111	73	103	89	101	100				CN1CCCCC12CCCN(C(=O)c1cccc(Br)c1)C2 (stereo not drawn)
99	101	43	104	103	103	101	> 200			CN1CCCCC12CCN(C(=O)c1cccc(Br)c1)CC2
120	108	103	106	107	99	100				CN1CCCC12CCN(C(=O)c1cccc(Br)c1)CC2
99	107	96	105	103	99	94				CN1CCCC12CCCN(C(=O)c1cccc(Br)c1)C2 (stereo not drawn)

Second part, the compound before the results:

SMILES	Activity [1] [%]	Activity [2] [%]	Activity [3] [%]	Activity [4] [%]	Activity [5] [%]	Activity [6] [%]	Activity [7] [%]	IC50 [8] [µM]	Activity [9]	Activity [10]
O=C(c1cccc(Br)c1)N1C[C@H]2CCCN[C@H]2C1	102	119	90	116	106	89	89			
O=C(c1cccc(Br)c1)N1CC[C@H]2NCC[C@H]2C1	103	107	113	103	108	97	99			
CN1C[C@H]2CCCN(C(=O)c3cccc(Br)c3)[C@H]2C1	102	106	85	105	106	96	94			
O=C(c1cccc(Br)c1)N1CCCC2(CCCCN2)C1 (stereo not drawn)	103	105	106	101	100	96	100			
O=C(c1cccc(Br)c1)N1C[C@@H]2CC3CCCCN3[C@@H]2C1 (stereo partly drawn)	106	105	106	102	103	96	96			
CN1CC[C@H]2CN(C(=O)c3cccc(Br)c3)C[C@H]21	105	108	105	105	109	102	91			
O=C(c1cccc(Br)c1)N1CCC2CNCC2C1 (stereo not drawn)	113	111	103	104	108	97	94			
O=C(c1cccc(Br)c1)N1CC[C@@H]2[C@@H](CC3CCCCN32)C1 (stereo partly drawn)	106	102	104	97	101	98	105			
CN1CCC2(CC1)CCN(C(=O)c1cccc(Br)c1)CC2	105	105	91	99	109	99	102			
C[N+]1(C)CCCCC12CCN(C(=O)c1cccc(Br)c1)CC2	102	102	49	96	98	99	96	> 200		
O=C(c1cccc(Br)c1)N1CCCC2(CCNCC2)C1	106	107	105	107	112	104	96			
CN1CCC[C@@H]2CN(C(=O)c3cccc(Br)c3)C[C@@H]21	100	104	45	106	106	95	97	39	inactive	inactive
O=C(c1cccc(Br)c1)N1CCC2(CCNCC2)CC1	101	107	101	103	98	103	103			
O=C(c1cccc(Br)c1)N1CCC[C@@H]2CNC[C@@H]21	106	102	103	108	109	101	96			
O=C(c1cccc(Br)c1)N1C[C@@H]2CC3CCCN3[C@@H]2C1 (stereo partly drawn)	106	110	104	97	107	101	100			
O=C(c1cccc(Br)c1)N1C[C@@H]2CCN[C@@H]2C1	98	110	105	95	102	94	94			
